Values quoted from earlier work in patent publication US8968801B1, “Supplement composition for supporting DNA repair and method of use” (Cellhealth Technologies Ltd., priority 2011, dated 2015).

System: ras-transformed human mammary epithelial cells
Conditions: eupatilin derived from artemisia plants (Kim D H, et al. 2004)

For `COc1ccc(-c2cc(=O)c3c(O)c(OC)c(O)cc3o2)cc1OC` [eupatilin], the cell cycle arrest is given as “induces cell cycle arrest”.
